{"source": "patent US20070129342A1", "about": "“Compositions Containing Ansamycin” (priority 2005, published 2007)", "key": {"[1]": {"format": "physicochemical", "protocol": "It should be noted that other secondary emulsifiers (e.g., dimyristylphosphatidylglycerol (DMPG), Solutol HS15, and Tween 80) were tested at refrigerated temperature for droplet size stability improvement."}, "[2]": {"details": "adult patients, cited from earlier work; for Cmax: read-out: Plasma Cmax"}}, "note": "Read-outs that look alike come from different tables or passages of the source."}
{"molecule": "CCCCCCCCCCCCCC(=O)OCC(COP(=O)(O)OCC(O)CO)OC(=O)CCCCCCCCCCCCC", "note": "(centres unmarked) [DMPG, dimyristylphosphatidylglycerol]", "values": [{"measurement": "effect of secondary emulsifier on droplet size stability of the emulsion", "setting": "[1]", "result": "resulted in a viscous emulsion that would be difficult to draw a syringe"}]}
{"molecule": "Tween 80", "values": [{"measurement": "effect of secondary emulsifier on droplet size stability of the emulsion", "setting": "[1]", "result": "did not improve the droplet size stability"}]}
{"molecule": "CCCCCCCC/C=C\\CCCCCCCC(=O)O", "note": "[oleic acid, cis-9-octadecenoic acid]", "values": [{"measurement": "effect of secondary emulsifier on droplet size stability of the emulsion", "setting": "[1]", "result": "showed improved stability"}]}
{"molecule": "C=CCNC1=C2C[C@@H](C)C[C@H](OC)[C@H](O)[C@@H](C)/C=C(\\C)[C@H](OC(N)=O)[C@@H](OC)/C=C\\C=C(/C)C(=O)NC(=CC1=O)C2=O", "note": "[Formulation 17-AAG, 17-(allylamino)-17-demethoxygeldanamycin]", "values": [{"measurement": "Cmax", "setting": "[2]; at 40 mg/m^2", "result": "1860 ± 660", "unit": "nM"}, {"measurement": "Cmax", "setting": "[2]; at 56 mg/m^2", "result": "3170 ± 1310", "unit": "nM"}, {"measurement": "maximum tolerated dose (MTD)", "setting": "[2]; daily 1-hour infusion for 5 days every three weeks", "result": 40, "unit": "mg/m^2"}, {"measurement": "clearance", "setting": "[2]; mean±SD", "result": "41.0 ± 13.5", "unit": "L/h"}, {"measurement": "terminal half-life", "setting": "[2]; mean±SD", "result": "2.5 ± 0.5", "unit": "h"}]}
